According to publication PMC10321483 (Chemical Science, 2023):
Several values for one entry are separate records, joined by “and”; a condition that tells them apart may be missing. Identical values can stand only once. Like-named read-outs stand apart in the source and are kept apart here.

Legend:
BlaC = target: T1, BlaC (Mycobacterium tuberculosis, UniProt P9WKD3); assay: BlaC fluorogenic inhibition assay with FC5 (dose-response); format: biochemical
T1 construct: made in house; host or cells: E. coli
Experimental: Two types of controls were used. […] In control 2, the BlaC mixture was substituted with the assay buffer. This mixture was incubated for 30 minutes at room temperature without shaking. […] Data were analysed using ActivityBase (IDBS).

LdtMt2 [1] = target: T2, LdtMt2 (Mycobacterium tuberculosis, UniProt I6Y9J2); assay: biochemical; format: biochemical; parameters: made in house; host or cells: E. coli
LdtMt2 [2] = target: T2, LdtMt2; assay: biochemical; format: binding; parameters: made in house; host or cells: E. coli; conditions: for Tm: melting point of LdtMt2 after pre-incubation with the compound: pH 7.5, in °C (unit assumed)
Experimental: LdtMt2 (5 μM) was incubated with the inhibitor (500 μM) in assay buffer (50 mM tris pH 7.5) for 30 minutes at room temperature in 96-well white PCR plates (25 μL final volume, Starlab). SYPRO Orange (final concentration 6×, according to manufacturer's definition, Invitrogen) was then added and the plate was sealed using a transparent plastic film (Polyolefin StarSeal, Starlab). Fluorescence was monitored (with λex = 492 nm and λem = 610 nm) using a CFX96 Touch Real-Time PCR Detection System (Bio-Rad), while the temperature was increased from 20 to 95 °C in increments of 0.2 °C. Melting temperatures (Tms) were determined using the CFX Maestro Software (Bio-Rad).

LdtMt2 [3] = target: T2, LdtMt2; assay: Rate constant of covalent target inactivation (kinact/KI), endpoint competition assay with probe 2; format: biochemical; parameters: made in house; host or cells: E. coli; conditions: from kobs, LdtMt2 100 nM, probe 2 100 nM to 10 μM
[4] = Table S3 tool compounds, 10 min incubation, 2.5 nM BlaC, 2.5 µM FC5, n=4
[5] = Table S4 HTS validation, 30 minutes inhibitor pre-incubation, n=6
[6] = Table S3 tool compounds, 10 min incubation, 2.5 nM BlaC, 2.5 µM FC5, n=4, read-out: pIC50 BlaC (mean ± SD) (converted)
[7] = Table S4 HTS validation, 30 minutes inhibitor pre-incubation, n=6, read-out: pIC50 LdtMt2 (mean ± SD) (converted)
[8] = Table S4 HTS validation, 30 minutes inhibitor pre-incubation, n=8, read-out: pIC50 BlaC (mean ± SD) (converted)

T1 sequence (P9WKD3 35-307): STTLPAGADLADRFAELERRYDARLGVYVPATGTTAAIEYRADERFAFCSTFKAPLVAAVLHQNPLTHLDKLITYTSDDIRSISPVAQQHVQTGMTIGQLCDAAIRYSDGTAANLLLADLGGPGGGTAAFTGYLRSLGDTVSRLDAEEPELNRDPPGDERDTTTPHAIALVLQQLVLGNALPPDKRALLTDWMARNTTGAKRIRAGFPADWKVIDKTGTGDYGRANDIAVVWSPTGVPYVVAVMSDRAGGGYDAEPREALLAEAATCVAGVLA
T2 sequence (I6Y9J2 56-408): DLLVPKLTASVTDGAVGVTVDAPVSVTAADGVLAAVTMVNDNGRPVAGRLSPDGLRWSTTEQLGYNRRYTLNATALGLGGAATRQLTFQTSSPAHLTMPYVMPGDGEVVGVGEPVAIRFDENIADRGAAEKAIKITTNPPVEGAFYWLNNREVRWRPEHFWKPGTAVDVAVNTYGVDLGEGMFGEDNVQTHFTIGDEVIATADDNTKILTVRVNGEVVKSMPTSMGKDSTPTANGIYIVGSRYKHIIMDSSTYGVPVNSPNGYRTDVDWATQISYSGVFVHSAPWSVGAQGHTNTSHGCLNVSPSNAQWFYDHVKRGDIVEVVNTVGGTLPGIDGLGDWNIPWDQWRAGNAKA

SMILES | IC50 (BlaC; [6]) | IC50 (LdtMt2 [1]; [7]) | IC50 (LdtMt2 [1]; pIC50 LdtMt2 (mean ± SD)) | IC50 (BlaC; [8]) | also measured
N#Cn1c(N2CCOCC2)nc2ccccc21 [Compound 28] |  |  |  |  | pIC50 BlaC (BlaC; Table S5 HTS hits, 30 minute inhibitor pre-incubation, two independent repeats): < 4.0; LE (ligand efficiency) (LdtMt2 [1]): 0.66; ΔTm: difference in melting point of LdtMt2 relative to unreacted LdtMt2 (43.8 °C) (LdtMt2 [2]): -1.5; Tm: melting point of LdtMt2 after pre-incubation with the compound (LdtMt2 [2]): 42.3 ± 0.09
C[C@@H](O)[C@H]1C(=O)N2C(C(=O)O)=C(S[C@H]3CC[S@@+]([O-])C3)S[C@H]12 [Sulopenem, reference compound] |  |  |  |  | pIC50 BlaC (mean ± SD) (BlaC; [4]): 6.60 ± 0.12; pIC50 BlaC (mean ± SD) (BlaC; Table S4 HTS validation, 30 minutes inhibitor pre-incubation, n=8): 6.86 ± 0.02; pIC50 LdtMt2 (mean ± SD) (LdtMt2 [1]): 6.2 ± 0.03; pIC50 LdtMt2 (mean ± SD) (LdtMt2 [1]; [5]): 6.35 ± 0.02
CN(C)C(=S)SSC(=S)N(C)C [Thiram, reference compound] | > 100000 nM | 170 nM | 158 nM |  | 
NC(=O)CI [Iodoacetamide, reference compound] |  |  |  |  | pIC50 BlaC (mean ± SD) (BlaC; [4]): < 4.0; pIC50 LdtMt2 (mean ± SD) (LdtMt2 [1]): 5.8 ± 0.03; pIC50 LdtMt2 (mean ± SD) (LdtMt2 [1]; [5]): 6.05 ± 0.03
O=C1C=CC(=O)N1 [Maleimide, reference compound] |  |  | 3980 nM and 2240 nM |  | IC50 (BlaC; pIC50 BlaC (mean ± SD), Table S3 tool compounds, 10 min incubation, 2.5 nM BlaC, 2.5 µM FC5, n=4): > 100000 nM
Cc1onc(-c2c(F)cccc2Cl)c1C(=O)N[C@@H]1C(=O)N2[C@@H]1SC(C)(C)[C@@H]2C(=O)O [Flucloxacillin, reference compound] | 135 nM | 1050 nM | 25100 nM | 77.6 nM | 
N#Cn1c(-c2ccncc2)nc2ccc(-c3cccnc3)cc21 [Compound 35] |  |  |  |  | LE (ligand efficiency) (LdtMt2 [1]): 0.49; ΔTm: difference in melting point of LdtMt2 relative to unreacted LdtMt2 (43.8 °C) (LdtMt2 [2]): -0.9; Tm: melting point of LdtMt2 after pre-incubation with the compound (LdtMt2 [2]): 42.9 ± 0.34
CC(=N)N1CC[C@H](SC2=C(C(=O)O)N3C(=O)[C@H]([C@@H](C)O)[C@H]3C2)C1 [Panipenem, reference compound] | 166 nM | 1230 nM | 316 nM | 93.3 nM | 
C[C@@H](O)[C@H]1C(=O)N2C(C(=O)O)=C(S[C@@H]3CN[C@H](C(=O)N(C)C)C3)[C@H](C)[C@H]12 [Meropenem, reference compound] | 141 nM | 1350 nM | 10000 nM | 40.7 nM | 
O=C(NNC(=O)[C@@H]1CC[C@@H]2CN1C(=O)N2OS(=O)(=O)O)[C@@H]1CCCNC1 [Zidebactam, reference compound] | 70800 nM | 13200 nM | 100000 nM | 7240 nM | 
CO/N=C(\C(=O)N[C@@H]1C(=O)N2C(C(=O)O)=C(CSC(=O)c3ccco3)CS[C@H]12)c1csc(N)n1 [Ceftiofur, reference compound] | > 100000 nM |  | > 100000 nM |  | 
O=C1OC2(c3ccc(O)cc3Oc3cc(OS(=O)(=O)c4ccc([N+](=O)[O-])cc4[N+](=O)[O-])ccc32)c2ccccc21 (stereo not shown) [probe 2, reference compound] |  |  |  |  | (kinact/KI)probe (LdtMt2 [3]): 39.8 M⁻¹ s⁻¹
C[C@@H](O)[C@H]1C(=O)N2C(C(=O)O)=C(S[C@@H]3CN[C@H](CNS(N)(=O)=O)C3)[C@H](C)[C@H]12 [Doripenem, reference compound] | 41.7 nM |  | 5010 nM and 1700 nM | 14.1 nM | 
N#Cn1nnc2ccccc21 [Compound 42, reference compound] |  |  |  |  | pIC50 LdtMt2 (LdtMt2 [1]): 6.02 ± 0.05
O=[Se](O)c1ccccc1 [Benzeneseleninic acid, reference compound] | > 100000 nM | 3550 nM | 10000 nM |  | 
C[C@@H](O)[C@H]1C(=O)N2C(C(=O)O)=C(S[C@@H]3CN[C@H](C(=O)Nc4cccc(C(=O)O)c4)C3)[C@H](C)[C@H]12 [Ertapenem, reference compound] | 178 nM | 776 nM | 1580 nM | 67.6 nM | 
CO/N=C(\C(=O)N[C@@H]1C(=O)N2C(C(=O)O)=C(COC(C)=O)CS[C@H]12)c1csc(N)n1 [Cefotaxime, reference compound] | > 100000 nM |  | > 100000 nM |  | 
CC(C)(O/N=C(\C(=O)N[C@@H]1C(=O)N2C(C(=O)[O-])=C(C[n+]3ccccc3)CS[C@H]12)c1csc(N)n1)C(=O)O [Ceftazidime] | 39800 nM |  | > 100000 nM | 12000 nM | 
Cc1onc(-c2ccccc2)c1C(=O)N[C@@H]1C(=O)N2[C@@H]1SC(C)(C)[C@@H]2C(=O)O [Oxacillin, reference compound] | 158 nM | 6030 nM | 63100 nM | 67.6 nM | 
